How the values were obtained:
[1] = Suspension equilibration of sorbate salt at 20 and 40° C. (Example 10, Experiments 3, 4, 9); type: physicochemical; conditions: for Observations (t = 1 d @ 40° C.) / Observations (t = 10 d @ 40° C.) / Observations (t = 1 d @ 20° C.) / Observations (t = 10 d @ 20° C.): sorbate salt Form A in 5 vol solvent; for Observations (t = 1 d @ 40° C.) / Observations (t = 10 d @ 40° C.) / Observations (t = 0 @ 40° C.) / XRPD (IPC, 6 d, wet) / XRPD (post oven dried) / Observations (t = 1 d @ 20° C.) / Observations (t = 10 d @ 20° C.) / Observations (t = 0 @ 20° C.): one solvent per sample; for Observations (t = 0 @ 40° C.) / Observations (t = 0 @ 20° C.): sorbate salt Form A, ca. 50 mg in 5 vol solvent; for XRPD (IPC, 6 d, wet): moist pellet after 6 d; for XRPD (post oven dried): pellet after oven drying
Experimental: The purpose of this panel is to determine if Form A evolves into a supra-ordinate form. The companion panel at 40° C. set-point is in place to detect enantiotropic behaviour via different relative proportions in different solvents. XRPD data of the moist pellets obtained from the suspension equilibration study at 20° C.
The relevant solvent (5 vol) was added to the appropriate vial and the suspensions were stirred and warmed to the predetermined temperature with stirring. […]

[2] = Qualitative solubility screen of Tabernanthalog sorbate salt (Example 10, Experiment 2); type: physicochemical; conditions: Tabernanthalog sorbate salt (input Form A), one solvent per sample; for Assignment (wet pellet XRPD): product crystallised in solubility screen, centrifuged wet pellet; for Assignment (dry pellet XRPD): same pellets dried under reduced pressure
Experimental: The qualitative solubility screen was carried out to determine the range of solvents incorporated into future suspension equilibration panels. Products that crystallised were centrifuged and analysed as wet pellet by XRPD, dried under reduced pressure and re-analysed by XRPD, with selected samples further analysed by TGA and ^1H NMR spectroscopy.
If insoluble at 5 vol, the solvent quantity was increased to 10 vol, 15 vol and 20 vol of the respective solvent. The suspensions that occurred upon cooling down were centrifuged and the solvent wet pellets were analysed by XRPD.
The insoluble suspensions were additionally worked up for XRPD analysis. The resultant powder patterns were subsequently cross-referenced against the input supplied material.

[3] = suspension equilibration at 40° C.
[4] = suspension equilibration at 20° C.

| SMILES | Observations (t = 1 d @ 40° C.) [1] | Observations (t = 0 @ 40° C.) [1] | XRPD (IPC, 6 d, wet) [1, 3] | XRPD (post oven dried) [1, 3] | Assignment (wet pellet XRPD) [2] | Assignment (dry pellet XRPD) [2] | further results |
| --- | --- | --- | --- | --- | --- | --- | --- |
| CC=CC=CC(=O)O.COc1ccc2c3c([nH]c2c1)CCN(C)CC3 [Experiment 4-Sample N] | Suspension | Suspension | Form A | Form A |  |  | Observations (t = 10 d @ 40° C.) [1]: Suspension |
| C/C=C/C=C/C(=O)O.COc1ccc2c3c([nH]c2c1)CCN(C)CC3 [Experiment 2-Sample N1] |  |  |  |  | Form A + split reflections | Form A |  |
| CC=CC=CC(=O)O.COc1ccc2c3c([nH]c2c1)CCN(C)CC3 [Experiment 4-Sample G] | Suspension | Suspension | Form A | Form A |  |  | Observations (t = 10 d @ 40° C.) [1]: Suspension |
| C/C=C/C=C/C(=O)O.COc1ccc2c3c([nH]c2c1)CCN(C)CC3 [Experiment 4-Sample H] | Suspension | Suspension | Pattern #3 | Form A |  |  | Observations (t = 10 d @ 40° C.) [1]: Suspension |
| C/C=C/C=C/C(=O)O.COc1ccc2c3c([nH]c2c1)CCN(C)CC3 [Experiment 4-Sample A] | Suspension | Suspension | Form A | Form A |  |  | Observations (t = 10 d @ 40° C.) [1]: Suspension |
| CC=CC=CC(=O)O.COc1ccc2c3c([nH]c2c1)CCN(C)CC3 [Experiment 2-Sample H1] |  |  |  |  | Form A + new shoulders | Form A + new shoulders |  |
| C/C=C/C=C/C(=O)O.COc1ccc2c3c([nH]c2c1)CCN(C)CC3 [Experiment 4-Sample E] | Solution | Partial | Pattern #5 |  |  |  |  |
| CC=CC=CC(=O)O.COc1ccc2c3c([nH]c2c1)CCN(C)CC3 [Experiment 3-Sample B] |  |  |  |  |  |  | Observations (t = 1 d @ 20° C.) [1]: Suspension; Observations (t = 10 d @ 20° C.) [1]: Suspension; Observations (t = 0 @ 20° C.) [1]: Suspension; XRPD (IPC, 6 d, wet) [1, 4]: Form A; XRPD (post oven dried) [1, 4]: Form A |
| CC=CC=CC(=O)O.COc1ccc2c3c([nH]c2c1)CCN(C)CC3 [Experiment 9-Sample C] |  |  |  |  |  |  | XRPD (post Filter dried) ([1]; Experiment 9, suspension equilibration at 40° C., filter dried): Form A; XRPD (IPC, 5 d, wet) ([1]; Experiment 9, suspension equilibration at 40° C., targets Pattern #3, #4, #5): Form A |
| C/C=C/C=C/C(=O)O.COc1ccc2c3c([nH]c2c1)CCN(C)CC3 [Experiment 4-Sample Q] | Suspension | Suspension | Form A | Form A |  |  | Observations (t = 10 d @ 40° C.) [1]: Suspension |
| CC=CC=CC(=O)O.COc1ccc2c3c([nH]c2c1)CCN(C)CC3 [Experiment 4-Sample F] | Partial | Partial | Form A | Form A |  |  |  |
| CC=CC=CC(=O)O.COc1ccc2c3c([nH]c2c1)CCN(C)CC3 [Experiment 2-Sample O1] |  |  |  |  | Form A + split reflections | Form A |  |
| CC=CC=CC(=O)O.COc1ccc2c3c([nH]c2c1)CCN(C)CC3 [Experiment 2-Sample I1] |  |  |  |  | Oiled |  |  |
| CC=CC=CC(=O)O.COc1ccc2c3c([nH]c2c1)CCN(C)CC3 [Experiment 3-Sample M] |  |  |  |  |  |  | Observations (t = 1 d @ 20° C.) [1]: Suspension; Observations (t = 10 d @ 20° C.) [1]: Suspension; Observations (t = 0 @ 20° C.) [1]: Suspension; XRPD (IPC, 6 d, wet) [1, 4]: Form A; XRPD (post oven dried) [1, 4]: Form A |
| CC=CC=CC(=O)O.COc1ccc2c3c([nH]c2c1)CCN(C)CC3 [Experiment 3-Sample R] |  |  |  |  |  |  | Observations (t = 1 d @ 20° C.) [1]: Suspension; Observations (t = 10 d @ 20° C.) [1]: Suspension; Observations (t = 0 @ 20° C.) [1]: Suspension; XRPD (IPC, 6 d, wet) [1, 4]: Pattern #2; XRPD (post oven dried) [1, 4]: Form A |
| CC=CC=CC(=O)O.COc1ccc2c3c([nH]c2c1)CCN(C)CC3 [Experiment 3-Sample S] |  |  |  |  |  |  | Observations (t = 1 d @ 20° C.) [1]: Solution; Observations (t = 0 @ 20° C.) [1]: Solution |
| CC=CC=CC(=O)O.COc1ccc2c3c([nH]c2c1)CCN(C)CC3 [Experiment 4-Sample K] | Suspension | Suspension | Form A | Form A |  |  | Observations (t = 10 d @ 40° C.) [1]: Suspension |
| CC=CC=CC(=O)O.COc1ccc2c3c([nH]c2c1)CCN(C)CC3 [Experiment 2-Sample L1] |  |  |  |  | Form A | Form A |  |

| SMILES | Observations (t = 1 d @ 40° C.) [1] | Observations (t = 0 @ 40° C.) [1] | XRPD (IPC, 6 d, wet) [1, 3] | XRPD (post oven dried) [1, 3] | Assignment (wet pellet XRPD) [2] | Assignment (dry pellet XRPD) [2] | further results |
| --- | --- | --- | --- | --- | --- | --- | --- |
| CC=CC=CC(=O)O.COc1ccc2c3c([nH]c2c1)CCN(C)CC3 [Experiment 3-Sample N] |  |  |  |  |  |  | Observations (t = 1 d @ 20° C.) [1]: Suspension; Observations (t = 10 d @ 20° C.) [1]: Suspension; Observations (t = 0 @ 20° C.) [1]: Suspension; XRPD (IPC, 6 d, wet) [1, 4]: Form A; XRPD (post oven dried) [1, 4]: Form A |
| CC=CC=CC(=O)O.COc1ccc2c3c([nH]c2c1)CCN(C)CC3 [Experiment 3-Sample L] |  |  |  |  |  |  | Observations (t = 1 d @ 20° C.) [1]: Suspension; Observations (t = 10 d @ 20° C.) [1]: Suspension; Observations (t = 0 @ 20° C.) [1]: Suspension; XRPD (IPC, 6 d, wet) [1, 4]: Form A; XRPD (post oven dried) [1, 4]: Form A |
| CC=CC=CC(=O)O.COc1ccc2c3c([nH]c2c1)CCN(C)CC3 [Experiment 4-Sample L] | Suspension | Suspension | Form A | Form A |  |  | Observations (t = 10 d @ 40° C.) [1]: Suspension |
| C/C=C/C=C/C(=O)O.COc1ccc2c3c([nH]c2c1)CCN(C)CC3 [Experiment 4-Sample B] | Suspension | Suspension | Form A | Form A |  |  | Observations (t = 10 d @ 40° C.) [1]: Suspension |
| C/C=C/C=C/C(=O)O.COc1ccc2c3c([nH]c2c1)CCN(C)CC3 [Experiment 4-Sample R] | Suspension | Suspension | Pattern #4 | Form A |  |  | Observations (t = 10 d @ 40° C.) [1]: Suspension |
| CC=CC=CC(=O)O.COc1ccc2c3c([nH]c2c1)CCN(C)CC3 [Experiment 3-Sample F] |  |  |  |  |  |  | Observations (t = 1 d @ 20° C.) [1]: Suspension; Observations (t = 10 d @ 20° C.) [1]: Suspension; Observations (t = 0 @ 20° C.) [1]: Suspension; XRPD (IPC, 6 d, wet) [1, 4]: Form A; XRPD (post oven dried) [1, 4]: Form A |
| CC=CC=CC(=O)O.COc1ccc2c3c([nH]c2c1)CCN(C)CC3 [Experiment 3-Sample T] |  |  |  |  |  |  | Observations (t = 1 d @ 20° C.) [1]: Solution; Observations (t = 10 d @ 20° C.) [1]: Solution; Observations (t = 0 @ 20° C.) [1]: Solution |
| C/C=C/C=C/C(=O)O.COc1ccc2c3c([nH]c2c1)CCN(C)CC3 [Experiment 4-Sample M] | Suspension | Suspension | Form A | Form A |  |  | Observations (t = 10 d @ 40° C.) [1]: Suspension |
| CC=CC=CC(=O)O.COc1ccc2c3c([nH]c2c1)CCN(C)CC3 [Experiment 2-Sample J1] |  |  |  |  | Form A, some shift of d-spacings | Form A |  |
| CC=CC=CC(=O)O.COc1ccc2c3c([nH]c2c1)CCN(C)CC3 [Experiment 2-Sample M1] |  |  |  |  | Form A + shoulder 22.89º 2 | Form A + new shoulder |  |
| CC=CC=CC(=O)O.COc1ccc2c3c([nH]c2c1)CCN(C)CC3 [Experiment 2-Sample P1] |  |  |  |  | Form A | Form A |  |
| CC=CC=CC(=O)O.COc1ccc2c3c([nH]c2c1)CCN(C)CC3.O |  |  |  |  | Pattern #1 | Converted into Form A |  |
| CC=CC=CC(=O)O.COc1ccc2c3c([nH]c2c1)CCN(C)CC3 [Experiment 2-Sample G1] |  |  |  |  | Form A | Form A |  |
| COc1ccc2c3c([nH]c2c1)CCN(C)CC3 [Experiment 2-Sample D1] |  |  |  |  | Form A | Form A | Assignment (wet pellet XRPD) ([2]; listed as Experiment 2-Sample E1): Form A + split reflections 5.90º, |
| COc1ccc2c3c([nH]c2c1)CCN(C)CC3.O=C(O)/C=C/C(=O)O [Experiment 2-Sample C1] |  |  |  |  | Form A | Form A |  |
| CC=CC=CC(=O)O.COc1ccc2c3c([nH]c2c1)CCN(C)CC3 [Experiment 2-Sample Q1] |  |  |  |  | Form A + new shoulders | Form A |  |
| CC=CC=CC(=O)O.COc1ccc2c3c([nH]c2c1)CCN(C)CC3 [Experiment 2-Sample R1] |  |  |  |  | Form A | Form A |  |
